Measured values as given in patent US12377095B2, “Use of ligustrazine nitrone derivatives in treatment and prevention of diabetic complication diseases” (QINGDAO HAILAN PHARMACEUTICALS CO., LTD., priority 2019, dated 2025).

What was measured:
[1] = test system: db/db mice; experiment: Urinary albumin/creatinine ratio in db/db mice, TBN alone and in combination; type: in vivo, mouse; details: TBN 30 mg/kg, Losartan 10 mg/kg, TBN+Losartan (FIG. 17)
Description: Grouping and dosing are the same as in Example 9. At the end of the experiment, 24 h urine samples were collected, antiseptic treatment was performed to all urine specimens with toluene, 24 h urine was centrifuged to remove precipitation and placed in a 1.5 mLEP tube and then placed in a refrigerator at −20° C. for later use, urinary albumin content was measured with ELISA kits, urine creatinine levels were detected by use of an automatic biochemical analyzer, and the ratio of both was calculated. The results as shown in FIG. 19 indicate that the ratio of urinary microalbumin to creatinine in DB/DB group was higher than that in wt/wt group, and the db/db mice 24 h urinary albumin creatinine ratio decreased in TBN group, losartan group and TBN-losartan combination group. Referring to this method, metformin (150 mg/kg, qd), and HIF-PH inhibitor roxadustat (10 mg/kg, once 2 every days) were given via oral administration, the combination groups of TBN with respectively metformin and roxadustat also reduce 24 h urinary albumin creatinine ratio.

[2] = test system: db/db mice; experiment: 24 h urine microalbumin in db/db mice; type: in vivo, mouse; details: 10 mg/kg once/day, 6 weeks, P<0.001
Text: db/db mice are congenital obese type 2 DKD mice with spontaneous mutations in the leptin receptor (Leptin receptor, Lepr) due to a point mutation in the leptin receptor gene GT located on chromosome 4. The course of polyphagia, polyuria, diabetes and hyperglycemia is similar to that of humans, and it is currently the most widely used type 2 spontaneous animal model of DKD. The db/db mice have a series of complications with the aggravation of diabetes. The main pathological changes of renal tissue are the expansion of the glomerular mesangial interstitium, the thickening of the glomerular basement membrane, and the excessive accumulation of extracellular matrix. However, the glomerular mesangium of db/db mice changes relatively slowly, and the glomerular mesangium will not be dissolved or nodular glomerulosclerosis, and there is no progressive renal insufficiency. […]
db/db mice were tested for 24 h urine microalbumin in the 4th and 6th week after drug treatment. […] The absorbance value (OD value) was measured at 450 nm wavelength; the blank control hole was used for adjusting zero, the microalbuminuria standard concentration was used as the abscissa, the OD value as the ordinate, the standard curve regression equation was calculated, and on the basis of the regression equation and the sample's OD value, the concentration of the sample was determined.

[3] = test system: db/db mice; experiment: Electron microscopy of kidney tissue in db/db mice; type: in vivo, mouse; details: 10 mg/kg, 6 weeks (TBN P<0.05; Losartan P<0.01)
Text: db/db mice are congenital obese type 2 DKD mice with spontaneous mutations in the leptin receptor (Leptin receptor, Lepr) due to a point mutation in the leptin receptor gene GT located on chromosome 4. The course of polyphagia, polyuria, diabetes and hyperglycemia is similar to that of humans, and it is currently the most widely used type 2 spontaneous animal model of DKD. The db/db mice have a series of complications with the aggravation of diabetes. The main pathological changes of renal tissue are the expansion of the glomerular mesangial interstitium, the thickening of the glomerular basement membrane, and the excessive accumulation of extracellular matrix. However, the glomerular mesangium of db/db mice changes relatively slowly, and the glomerular mesangium will not be dissolved or nodular glomerulosclerosis, and there is no progressive renal insufficiency.
Six-week-old db/db mice were purchased, and start the administration after adaptive feeding for 1 week (i.e., 7-week-old). TBN is administered twice a day (fixed by starting from 9:00-10:00 am and 3:00-4:00 pm, with an interval of 6 hours), and the positive control drug Losartan was administered once a day (fixed at 9:00-10:00 am) for 6 weeks.
After the mice were executed, the renal cortex was quickly taken with sharp blade (performed on ice); fixed with 2.5% glutaraldehyde (pH 7.4) at 4° C. for 6 h; then fixed for 2 h in a stationary liquid having 1:1 of 0.2 mmol/L PBS and 2% osmic acid, and dehydrated with gradient acetone at 4° C., 10 min for each of 50%, 70%, 90% acetone, then dehydrated with 100% acetone at room temperature twice, each time 15 min; in 1:1 acetone and Epon812 epoxy resin embedded mixed liquid, soaked at room temperature for 30 min; then dipped through the pure furnishings overnight, the embedding agent was made enveloping into tissue blocks completely to replace the dehydrating agent; the samples were embedded in the embedder for ultra-thin slicing, placed at 35° C. for 12 h; placed at 45° C. for 12 h; placed at 60° C. for 48 h; placed in a 37° C. oven for 36 h, in a 60° C. oven for 36 h; 1.5 μm semi-slice was prepared with an ultra-thin slicer; positioning under optical microscope, a trapeter having a top area of about 1 mm^2 was shaped to prepare 60-70 nm thick ultra-thin slices; dyed in dark with acetate hydroxide liquid for 10 min, and dyed in lead-stained citrate for 10 min.

[4] = test system: STZ-induced DKD rats; experiment: HE staining of kidney tissue, STZ-induced SD rat DKD model; type: in vivo; details: 10 mg/kg i.g. once/day, 6 weeks
Description: (§1) Before the injection, the rats were fasted for 12 hours without water. After weighing, the rats were injected with 55 mg/kg STZ intraperitoneally (STZ needs to be injected quickly, and the injection was completed within 10 minutes), and then returned to the cage to ensure that the rats had sufficient drinking water for 24 hours. Rats were injected with an equal volume of citrate buffer (pH 4.5). After STZ injection for 3 weeks, blood was collected from the tail vein, and blood glucose ≥16.7 mmol/L was used as the criteria for the standard of the rats.
(§2) The route of administration is intragastric administration. TBN was administered twice a day (fixed at 9:00-10:00 am and 3:00-4:00 pm), and Losartan was administered once a day (fixed at 9:00-10:00 am) continuously for 6 weeks.
At the end of the experiment, kidney tissues were quickly separated, fixed with 4% paraformaldehyde and embedded in paraffin, serially sliced, 5 μm each, dried at 37° C. for 1 h, and then stained with hematoxylin and eosin (HE). The process is briefly as follows: paraffin sections were taken out of the 65° C. oven and immediately put in xylene to dewax and rehydrated with gradient alcohol, stained with hematoxylin staining solution for 10 minutes, and microscopically controlled alcohol differentiation with 1% hydrochloric acid was performed until the chromatin of the nucleus and the nucleus becomes clear; 1% ammonia water-ethanol solution is blue; 0.5% eosin Y-ethanol solution is stained for 3 min, and finally dehydrated routinely, mounted, and the tissue morphology changes are observed under a light microscope. […] The glomerular volume of rats in the DKD group of the Vehicle group increased, the mesangial area was diffusely widened, the mesangial cells were proliferated, the capillary loops were expanded, the mesangial matrix increased, and the glomerular capillary basement membrane was irregularly thickened. Renal pathological changes such as vacuole deformation, shedding of renal tubular epithelial cells and infiltration of a large number of inflammatory cells (FIG. 9A).

[5] = test system: STZ-induced DKD rats; experiment: PAS staining, glomerular sclerosis index, STZ-induced DKD rats; type: in vivo, rat; details: all doses of TBN (10, 30, 60 mg/kg twice/day); Losartan 10 mg/kg once/day; 6 weeks; P<0.001 vs Vehicle
Description: as §1, §2
At the end of the experiment, kidney tissues were quickly separated, fixed with 4% paraformaldehyde and embedded in paraffin, serially sliced, 5 μm each, dried at 37° C. for 1 h, and then stained with PAS. The process is briefly as follows: paraffin sections are taken out of the 65° C. oven and immediately placed in xylene for deparaffinization and gradient alcohol rehydration, followed by periodic acid treatment for 5 min and Schiff treatment for 10 min, and then differentiation is performed with differentiation solution for 10 s. […]

[6] = test system: STZ-induced DKD rats; experiment: Masson staining, interstitial fibrosis index, STZ-induced DKD rats; type: in vivo, rat; details: 10 mg/kg once/day, P<0.05 vs vehicle
Description: as §1, §2
At the end of the experiment, the kidney tissues were quickly separated, fixed with 4% paraformaldehyde and embedded in paraffin, serially sliced, 5 μm each, dried at 37° C. for 1 h, and then subjected to Masson staining. The process is briefly as follows: paraffin sections are taken out of the 65° C. oven and immediately put in xylene for dewaxing and gradient alcohol rehydration, according to the kit instructions, add reagent A (a mixture of equal amounts of A1 and A2) for dyeing for 8 min; then use Reagent B differentiates and reagent C turns blue; reagent D stains for 7 min; reagent E washes for 1 min; reagent F washes for 1 min; reagent G stains for 1 min; dehydrated with 95% ethanol and absolute ethanol, transparent xylene, sealed with neutral gum piece.

[7] = test system: STZ-induced DKD rats; experiment: Body weight, water intake and food intake of STZ-induced DKD rats; type: in vivo, rat
Description: (§3) SD rats (200±10 g) were used as model animals, which were fasted for 12 h before injection. STZ was dissolved in citrate buffer at 1% concentration, and rats were fasted and intraperitoneally injected with 55 mg/kg STZ and placed in the cage, the rats being ensured with adequate water intake for 24 h. STZ injections need to be fast and complete within 10 minutes of injection. The normal control group was injected with an equal volume of pH 4.5 citric acid-sodium citrate buffer. The state of the animals (multiple drinking and polyuria) was observed. After 3 weeks of STZ injection, blood was collected from the tail vein, and fasting blood glucose ≥16.7 mmol/L was measured as the standard for diabetic nephropathy in rats.
(§4) DKD rats were randomly assigned to 6 groups and given with different drugs. After 6 weeks of administration, the experiment was terminated and the protective effect of the drug on DKD rats was observed.
The general condition and body weight changes after rat modeling were observed weekly. The general conditions include the activity, mental state, coat color, diet, water intake and urine volume of the rats. The amount of water and the amount of feed were recorded weekly.

[8] = test system: EPO mRNA; experiment: EPO mRNA by RT-PCR in CoCl2-induced HepG2 cell hypoxia model; details: hypoxia model caused by cobalt dichloride, concentration not given
[9] = test system: STZ-induced DKD rats; experiment: Kidney index of STZ-induced DKD rats; type: in vivo, rat; details: after 6 weeks of administration
Description: as §3, §4
After 6 weeks of administration, the kidney tissue was uniformly separated by an autoclave surgical instrument, and washed with normal saline. After the filter paper was blotted, the fine balance was weighed, and then stored in a refrigerator at −80° C. for use. Kidney index (relative to kidney weight) is kidney weight (mg)/body weight (g)[…].

[10] = test system: STZ-induced DKD rats; experiment: Retinopathy of STZ-induced DKD rats; type: in vivo, rat; details: DKD rats after treatment, Table 1 (FIG. 5)
Description: as §3, §4
During the experiment, the retinopathy of rats was observed during daily administration, and the dates of retinopathy in different groups of rats were recorded.

[11] = test system: STZ-induced DKD rats; experiment: Serum biochemical parameters of STZ-induced DKD rats; type: in vivo, rat; details: six weeks after administration, dose-dependent
Description: as §3, §4
Six weeks after the administration, the rats were anesthetized, and the blood was taken from the abdominal aorta, and, after standing for 1 hour, was centrifuged at 3000 rmp for 10 min and stored at −70° C. Serum levels of creatinine, urea nitrogen, cholesterol and triglycerides were measured using an automated biochemical analyzer.

[12] = test system: STZ-induced DKD rats; experiment: Blood glucose and urine protein in STZ-induced DKD rats; type: in vivo, rat
Description: as §3, §4
During the experiment, the blood glucose of the rats was monitored after the completion of the modeling and after the completion of the administration, and urine protein was collected once at 24 hour.

CCCCc1nc(Cl)c(CO)n1Cc1ccc(-c2ccccc2-c2nn[nH]n2)cc1 [Losartan, reference compound]
24 h urinary albumin creatinine ratio [1]: decreased | 24 h urine microalbumin production [2]: significantly reduced | thickness of the glomerular base film [3]: significantly reduced | glomerular area [4]: did not significantly reduce | renal tissue damage (HE) [4]: improved | glomerular sclerosis index [5]: significantly reduce | interstitial fibrosis index [6]: significantly reduced

Cc1nc(/C=[N+](\[O-])C(C)(C)C)c(C)nc1/C=[N+](\[O-])C(C)(C)C [TN-2]
body weight ([7]; STZ-induced diabetic nephropathy rats, FIG. 1a): no effect | water intake ([7]; vs model group, FIG. 1b): significantly lower | food intake ([7]; vs model group, FIG. 1c): significantly lower | expression of EPO mRNA [8]: increase | kidney index [9]: significantly reduced | number of retinopathy [10]: reduced | time when retinopathy occurred [10]: relatively delayed | serum cholesterol [11]: significantly reduce | serum creatinine [11]: significantly reduce | serum triglyceride [11]: significantly reduce | serum urea nitrogen [11]: significantly reduce | urinary protein content in urine ([12]; 24 hour urine, DKD rats): significantly reduced | blood glucose ([12]; after 6 weeks of treatment): significantly decreased
